SMILES strings stand for the structures.

Experiment [1] deals with human purified sGC (heterodimer of sGCα1 and sGCβ1) (Homo sapiens (Human), UniProt Q02108+Q02153). The experiment in a line: sGC activation test (cGMP produced, HTRF). Type of experiment: biochemical. To be noted: maximum activity of Preparation Example 200 compound (maximum 100 μM) taken as 100%; with SNP; read-out: EC50 (concentration giving 50% of maximum activity). As for the experimental part: The activity of sGC was evaluated by measuring the amount of cGMP produced by human purified sGC.
Chain of human purified sGC (heterodimer of sGCα1 and sGCβ1) (Q02108 whole entry, the tested form may be a part): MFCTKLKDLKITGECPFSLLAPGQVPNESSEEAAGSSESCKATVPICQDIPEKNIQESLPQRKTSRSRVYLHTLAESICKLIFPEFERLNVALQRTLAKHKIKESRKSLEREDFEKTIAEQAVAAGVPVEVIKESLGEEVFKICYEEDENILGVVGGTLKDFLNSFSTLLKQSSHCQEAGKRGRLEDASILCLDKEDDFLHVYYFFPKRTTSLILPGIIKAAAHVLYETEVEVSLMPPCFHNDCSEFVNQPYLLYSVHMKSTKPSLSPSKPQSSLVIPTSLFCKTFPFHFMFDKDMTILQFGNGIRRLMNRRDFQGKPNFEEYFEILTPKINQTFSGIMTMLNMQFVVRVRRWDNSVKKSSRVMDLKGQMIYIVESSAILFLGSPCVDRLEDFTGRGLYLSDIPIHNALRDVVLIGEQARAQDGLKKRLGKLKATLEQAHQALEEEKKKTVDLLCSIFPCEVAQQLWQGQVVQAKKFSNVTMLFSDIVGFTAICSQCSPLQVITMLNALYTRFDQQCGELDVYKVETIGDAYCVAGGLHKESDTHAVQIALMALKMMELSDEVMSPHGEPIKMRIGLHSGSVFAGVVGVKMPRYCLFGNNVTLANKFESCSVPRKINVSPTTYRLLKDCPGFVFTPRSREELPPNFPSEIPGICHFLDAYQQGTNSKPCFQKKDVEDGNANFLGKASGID
Chain of human purified sGC (heterodimer of sGCα1 and sGCβ1) (Q02153 whole entry, the tested form may be a part): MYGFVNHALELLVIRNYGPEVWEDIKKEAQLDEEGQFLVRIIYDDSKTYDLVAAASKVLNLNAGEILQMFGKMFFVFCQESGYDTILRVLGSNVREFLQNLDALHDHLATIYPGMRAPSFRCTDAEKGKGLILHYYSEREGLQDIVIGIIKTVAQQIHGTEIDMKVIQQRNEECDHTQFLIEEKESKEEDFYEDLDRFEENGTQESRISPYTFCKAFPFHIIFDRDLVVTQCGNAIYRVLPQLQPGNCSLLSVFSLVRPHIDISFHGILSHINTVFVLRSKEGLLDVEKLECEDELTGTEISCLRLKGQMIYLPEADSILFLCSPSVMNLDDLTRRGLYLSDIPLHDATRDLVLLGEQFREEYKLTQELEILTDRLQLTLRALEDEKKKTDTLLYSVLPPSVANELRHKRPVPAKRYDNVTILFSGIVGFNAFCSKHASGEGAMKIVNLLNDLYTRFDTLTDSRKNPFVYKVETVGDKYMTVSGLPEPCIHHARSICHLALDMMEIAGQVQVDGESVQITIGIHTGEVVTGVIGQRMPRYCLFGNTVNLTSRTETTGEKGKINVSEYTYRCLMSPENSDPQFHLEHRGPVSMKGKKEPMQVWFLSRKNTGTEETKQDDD
Using an sGCα 1 gene (NCBI accession No. BC028384.2) and an sGCβ1 gene (NCBI accession No. BC047620.1), an N-terminal FLAG tag-fused sGCα1 and an sGCβ1 expression baculovirus were prepared. These viruses were transfected into insect cells Sf9 (Cat. No. 11496-015, Gibco) to express a protein. From the cell lysates of the insect cells, heterodimers of the N-terminal FLAG tag-fused sGCα1 and sGCβ1 were purified with an M2 Affinity Gel (Sigma-Aldrich, Inc.) to obtain a human sGC.
An Example compound was dissolved in DMSO and diluted 20-fold with ultrapure water. 2 μL of the diluted Example compound solution (maximum concentration of 100 μM), 2 μL of a substrate solution [0.5 μM triethanolamine buffer solution, 0.03 μM dithiothreitol, 0.01 μM GTP, 0.04 μM MgCl2, and 0.03 μM sodium nitroprusside (SNP)], and 6 μL of a human enzyme suspension were added to 384-well plates (manufactured by Greiner Bio-One), and incubated at room temperature for one hour. The measurement of the amount of cGMP was carried out, using an HTRF reagent (Cisbio).
The sGC activation action of the Example compound was calculated as an Example compound concentration which gives 50% of a maximum activity (EC50), in which the maximum activity by the addition of a compound shown in Preparation Example 200, 8-(cyclohexylmethoxy)-N-[(1R)-2-hydroxy-1-phenylethyl]-2-methylimidazo[1,2-a]pyridine-3-carboxamide hydrochloride (maximum 100 μM), is taken as 100%. Further, the maximum activity of sGC with the addition of 8-(cyclohexylmethoxy)-N-[(1R)-2-hydroxy-1-phenylethyl]-2-methylimidazo[1,2-a]pyridine-3-carboxamide hydrochloride is 10-fold or more relative to the sGC activation without the addition of the compound, and it is recognized that the compound has a good sGC activating action. […] The test results of some Example compounds that are the compounds of the formula (I) of the present invention are shown below. Further, in Tables, Ex. represents Example number.
Background: TR-FRET usually uses a lanthanide donor and a delayed reading to cut background.

The test system of experiment [2] is hind limb blood flow in rats anesthetized with pentobarbital. Description: Blood flow increasing action in vivo (hind limb blood flow, anesthetized rats). Set-up: species or system Wistar male rats. To be noted: oral, 2 hours after administration, effective when blood flow rate 130% or more of solvent group. As for the experimental part: The hind limb blood flow increasing action in rats anesthetized with pentobarbital was confirmed by the following test method.
Wistar male rats, 11- to 14-week (Japan SLC, Inc.) were used. An administration liquid was prepared by adding N,N-dimethyl formamide, Polyethylene Glycol 400, TWEEN 80, a 0.5% methyl cellulose aqueous solution, a 0.5 M aqueous sodium hydrogen carbonate solution, and 0.1 M hydrochloric acid to the test compound and dissolving the Example compound in an appropriate manner depending on the compound. The prepared administration liquid was orally administered, and 2 hours later, the hind limb blood flow increasing action was evaluated under anesthesia with intraperitoneally administration of 60 mg/kg of pentobarbital The hind limb blood flow was measured using a laser blood flow imaging device (PIM II Integral). By taking the average blood flow rate of a group with the administration of a solvent as 100%, the compound was evaluated to be effective when the blood flow rate was 130% or more by the administration of the compound.

Experiment [3] relates to average blood pressure of rats. Description: Measurement of antihypertensive effect in vivo. On the set-up: species or system Wistar male rats. Conditions: oral. As for the experimental part:
As the animals, Wistar male rats, 13- to 18-week (Japan SLC, Inc.) were used. Three days prior to administration of a test compound, a cannula (PE-50, Becton, Dickinson and Company, Japan) filled with heparin physiological saline (200 U/mL, Ajinomoto Pharmaceuticals Co., Ltd.) was inserted and placed in the common carotid artery under anesthesia with intraperitoneal administration of 60 mg/kg of pentobarbital. The other end of the cannula was subcutaneously exposed to the back of the neck. After the recovery period, the placed cannula was connected to a pressure transducer (Life Kit DTS DX-100, Nihon Kohden Corporation) to record the blood pressure waveform through an amplifier (AP-641G, Nihon Kohden Co., Ltd.) and PowerLab (ML870 PowerLab8/30 (AD Instruments Japan)). The heart rate was calculated using a heart rate measuring unit (AT-601G, Nihon Kohden Co., Ltd.). After stabilization of the blood pressure, the test compound was orally administered one time to measure the blood pressure and the heart rate over time. The test compounds were administered by appropriately adding N,N-dimethylformamide, Polyethylene Glycol 400, TWEEN 80, a 0.5% aqueous methylcellulose solution, and a 0.5 M aqueous sodium hydrogen carbonate solution, and 0.1 M hydrochloric acid therein according to the compounds and dissolving it.
Further, the administration doses in Tables represent the administration doses for oral administration, and for example, 3 means 3 mg/kg. Further, the blood pressure reduction represents a maximum change value from the value before administration in the average blood pressure, and for example, −63 indicates reduction by 63 mmHg.

Regarding `Cc1nnc([C@](C)(CO)NC(=O)c2c(C)nc3c(OCc4c(F)cccc4F)cccn23)o1` [Example 117, 8-[(2,6-difluorobenzyl)oxy]-N-[(2S)-1-hydroxy-2-(5-methyl-1,3,4-oxadiazol-2-yl)propan-2-yl]-2-methylimidazo[1,2-a]pyridine-3-carboxamide], in experiment [1], the EC50 turned out to be 5500 nM. For the same molecule, in experiment [2] (0.1 mg/kg), the “hind limb blood flow increasing action” value is listed as “exhibited a blood flow increasing action”. The “Blood pressure reduction (maximum change from value before administration in average blood pressure)” value in experiment [3] (single dose 1 mg/kg) was −35 mmHg.

Turning to `Cc1nc2c(OCc3c(F)cccc3F)cccn2c1C(=O)NC(CO)(CO)c1nnn(C(F)F)n1` [Example 96], the EC50 in experiment [1] was found to be 3400 nM. Moreover, in experiment [2] (0.3 mg/kg), the “hind limb blood flow increasing action” value was “exhibited a blood flow increasing action”. The “Blood pressure reduction (maximum change from value before administration in average blood pressure)” value in experiment [3] (single dose 1 mg/kg) was −21 mmHg.

Turning to `Cc1ncc(C(C)(CO)NC(=O)c2c(C)nc3c(OCc4c(F)cccc4F)cccn23)s1` (centres unmarked) [Example 2, 8-[(2,6-difluorobenzyl)oxy]-N-[1-hydroxy-2-(2-methyl-1,3-thiazol-5-yl)propan-2-yl]-2-methylimidazo[1,2-a]pyridine-3-carboxamide], the EC50 in experiment [1] worked out at 2600 nM. Moreover, the “hind limb blood flow increasing action” value in experiment [2] (3 mg/kg) was “exhibited a blood flow increasing action”. Moreover, the “Blood pressure reduction (maximum change from value before administration in average blood pressure)” value in experiment [3] (single dose 3 mg/kg) is given as −56 mmHg.

With `Cc1nnc([C@](C)(CO)NC(=O)c2c(C)nc3c(OCc4c(F)cccc4F)cccn23)s1` [Example 118, 8-[(2,6-difluorobenzyl)oxy]-N-[(2S)-1-hydroxy-2-(5-methyl-1,3,4-thiadiazol-2-yl)propan-2-yl]-2-methylimidazo[1,2-a]pyridine-3-carboxamide], the EC50 in experiment [1] was determined as 1100 nM. Also, the “hind limb blood flow increasing action” value in experiment [2] (1 mg/kg) is “exhibited a blood flow increasing action”. Further, in experiment [3] (single dose 3 mg/kg), the “Blood pressure reduction (maximum change from value before administration in average blood pressure)” value is on record as −61 mmHg.

For `CCn1nnc(C(C)(CO)NC(=O)c2c(C)nc3c(OCc4c(F)cccc4F)cccn23)n1` (centres unmarked) [Example 8, 8-[(2,6-difluorobenzyl)oxy]-N-[2-(2-ethyl-2H-tetrazol-5-yl)-1-hydroxypropan-2-yl]-2-methylimidazo[1,2-a]pyridine-3-carboxamide], the EC50 in experiment [1] amounted to 5700 nM. For the same molecule, the “hind limb blood flow increasing action” value in experiment [2] (3 mg/kg) is listed as “exhibited a blood flow increasing action”. In addition, the “Blood pressure reduction (maximum change from value before administration in average blood pressure)” value in experiment [3] (single dose 3 mg/kg) is −29 mmHg.

For `Cc1nc2c(OCc3c(F)cccc3F)cccn2c1C(=O)NC(CO)(CO)c1ccc(F)cc1` [Example 54], the EC50 in experiment [1] is 2700 nM. Besides, the “hind limb blood flow increasing action” value in experiment [2] (3 mg/kg) was “exhibited a blood flow increasing action”. Further, the “Blood pressure reduction (maximum change from value before administration in average blood pressure)” value in experiment [3] (single dose 3 mg/kg) is reported as −56 mmHg.

With `Cc1nc2c(OCc3c(F)cccc3F)cccn2c1C(=O)N[C@@](C)(CO)c1nnn(C(F)F)n1` [Example 114, 8-[(2,6-difluorobenzyl)oxy]-N-{(2R)-2-[2-(difluoromethyl)-2H-tetrazol-5-yl]-1-hydroxypropan-2-yl}-2-methylimidazo[1,2-a]pyridine-3-carboxamide], the EC50 in experiment [1] was determined as 730 nM. Besides, the “hind limb blood flow increasing action” value in experiment [2] (0.03 mg/kg) was “exhibited a blood flow increasing action”. Besides, the “Blood pressure reduction (maximum change from value before administration in average blood pressure)” value in experiment [3] (single dose 0.3 mg/kg) is on record as −35 mmHg.

Turning to `Cc1nc2c(OCc3c(F)cccc3F)cccn2c1C(=O)N[C@@](C)(CO)c1ccc(CO)cc1` (stereo in doubt) [Example 107a, 8-[(2,6-difluorobenzyl)oxy]-N-{1-hydroxy-2-[4-(hydroxymethyl)phenyl]propan-2-yl}-2-methylimidazo[1,2-a]pyridine-3-carboxamide], in experiment [1], the EC50 amounted to 1500 nM. The “hind limb blood flow increasing action” value in experiment [2] (3 mg/kg) is recorded as “exhibited a blood flow increasing action”.

Consider `Cc1nc2c(OCc3c(F)cccc3F)cccn2c1C(=O)N[C@@](C)(CO)c1ccccn1` [Example 11], for which, in experiment [1], the EC50 was found to be 1300 nM. Further, in experiment [2] (1 mg/kg), the “hind limb blood flow increasing action” value is “exhibited a blood flow increasing action”.

With `Cc1cnc(C(C)(CO)NC(=O)c2c(C)nc3c(OCc4c(F)cccc4F)cccn23)o1` (centres unmarked) [Example 38], the EC50 in experiment [1] came to 2500 nM. Further, the “hind limb blood flow increasing action” value in experiment [2] (1 mg/kg) was “exhibited a blood flow increasing action”.

As to `Cc1nc2c(OCc3c(F)cccc3F)cccn2c1C(=O)N[C@@](C)(CO)c1nnn(C)n1` (stereo in doubt) [Example 108a, 8-[(2,6-difluorobenzyl)oxy]-N-[1-hydroxy-2-(2-methyl-2H-tetrazol-5-yl)propan-2-yl]-2-methylimidazo[1,2-a]pyridine-3-carboxamide], in experiment [1], the EC50 stood at 4600 nM. Moreover, the “hind limb blood flow increasing action” value in experiment [2] (0.3 mg/kg) is “exhibited a blood flow increasing action”.

As to `CCn1nnc([C@H](CO)NC(=O)c2c(C)nc3c(OCc4c(F)cccc4F)cccn23)n1` [Example 81], the EC50 in experiment [1] amounted to 16000 nM. Besides, in experiment [2] (1 mg/kg), the “hind limb blood flow increasing action” value is listed as “exhibited a blood flow increasing action”.

With `Cc1nc2c(OCc3c(F)cccc3F)cccn2c1C(=O)N[C@@H](CO)c1nnn(C(F)F)n1` [Example 83], in experiment [1], the EC50 was determined as 2700 nM. Further, in experiment [2] (1 mg/kg), the “hind limb blood flow increasing action” value is on record as “exhibited a blood flow increasing action”.

`Cc1nc2c(OCc3c(F)cccc3F)cccn2c1C(=O)NC(C)(CO)c1ccc(F)c(CO)c1` (centres unmarked) [Example 52]: in experiment [1], the EC50 was 2200 nM. For the same molecule, the “hind limb blood flow increasing action” value in experiment [2] (3 mg/kg) is reported as “exhibited a blood flow increasing action”.

As for `Cc1nc2c(OCc3c(F)cccc3F)cccn2c1C(=O)N[C@@](C)(CO)c1ccccc1` [Example 9], the EC50 in experiment [1] turned out to be 720 nM. In experiment [2] (0.3 mg/kg), the “hind limb blood flow increasing action” value was “exhibited a blood flow increasing action”. Further, in experiment [3] (single dose 3 mg/kg), the “Blood pressure reduction (maximum change from value before administration in average blood pressure)” value is −63 mmHg.

In the case of `Cc1nc2c(OCc3c(F)cccc3F)cccn2c1C(=O)N[C@]1(c2ccccn2)C[C@@H](O)[C@@H](O)C1` [Example 67], the EC50 in experiment [1] came out at 24000 nM. Also, the “hind limb blood flow increasing action” value in experiment [2] (3 mg/kg) was “exhibited a blood flow increasing action”.

`Cc1csc(C(C)(CO)NC(=O)c2c(C)nc3c(OCc4c(F)cccc4F)cccn23)n1` (centres unmarked) [Example 40]: the EC50 in experiment [1] turned out to be 3800 nM. For the same molecule, in experiment [2] (3 mg/kg), the “hind limb blood flow increasing action” value is on record as “exhibited a blood flow increasing action”.

In the case of `Cc1nc2c(OCc3c(F)cccc3F)cccn2c1C(=O)NC(C)(CO)c1nnc(C(F)(F)F)o1` (centres unmarked) [Example 91], the EC50 in experiment [1] is 1500 nM. Also, in experiment [2] (0.3 mg/kg), the “hind limb blood flow increasing action” value was “exhibited a blood flow increasing action”.

For the origin of these results see patent US9278968B2, “Imidazopyridine compounds” (ASTELLAS PHARMA INC., priority 2012, dated 2016).
